Measured values from ChEMBL document CHEMBL1157550, “Incorporation of fluorinated phenylalanine generates highly specific inhibitor of proteasome's chymotrypsin-like sites” (J Med Chem, 2010).
The source made the active and inactive calls. No cut-off for these calls is given here.

What was measured:
[1] = target: T1, Proteasome component C5 (Homo sapiens) (UniProt P20618); assay: Displacement of fluorescent labeled MV151 from 26S proteasome beta 1 in human HEK293 cell lysate assessed as disappearance of band at 0.1 to 1 uM after 1 hr by SDS-PAGE; assay type: cell-free
T1 sequence (whole entry): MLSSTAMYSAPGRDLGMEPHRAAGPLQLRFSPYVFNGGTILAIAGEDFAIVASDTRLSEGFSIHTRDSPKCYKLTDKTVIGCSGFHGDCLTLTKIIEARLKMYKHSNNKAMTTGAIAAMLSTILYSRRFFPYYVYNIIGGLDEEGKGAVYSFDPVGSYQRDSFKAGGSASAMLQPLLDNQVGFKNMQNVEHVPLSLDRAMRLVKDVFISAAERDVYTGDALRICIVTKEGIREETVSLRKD

[2] = target: T1, Proteasome component C5 (Homo sapiens); assay: Inhibition of 26S proteasome beta 1 in human HEK293 cell lysate assessed as residual activity at 1.5 uM after 1 hr; assay type: cell-free
[3] = target: T1, Proteasome component C5 (Homo sapiens); assay: Inhibition of 26S proteasome beta 1 in human HEK293 cell lysate assessed as residual activity at 0.167 uM after 1 hr; assay type: cell-free
[4] = target: Proteasome Macropain subunit (Homo sapiens) (UniProt P49721); assay: Inhibition of 26S proteasome beta 2 in human HEK293 cell lysate assessed as residual activity at 0.167 uM after 1 hr; assay type: cell-free
[5] = target: Proteasome subunit beta type-5 (Homo sapiens) (UniProt P28074); assay: Inhibition of 26S proteasome beta 5 in human HEK293 cell lysate assessed as residual activity at 0.001 uM after 1 hr
[6] = target: Proteasome subunit beta type-5 (Homo sapiens) (UniProt P28074); assay: Inhibition of 26S proteasome beta 5 in human HEK293 cell lysate assessed as residual activity at 0.002 uM after 1 hr
[7] = target: Proteasome Macropain subunit (Homo sapiens) (UniProt P49721); assay: Inhibition of 26S proteasome beta 2 in human HEK293 cell lysate assessed as residual activity at 0.001 uM after 1 hr; assay type: cell-free
[8] = target: T1, Proteasome component C5 (Homo sapiens); assay: Inhibition of 26S proteasome beta 1 in human HEK293 cell lysate assessed as residual activity at 0.5 uM after 1 hr; assay type: cell-free
[9] = target: T1, Proteasome component C5 (Homo sapiens); assay: Inhibition of 26S proteasome beta 1 in human HEK293 cell lysate assessed as residual activity at 0.019 uM after 1 hr; assay type: cell-free
[10] = target: T1, Proteasome component C5 (Homo sapiens); assay: (§1) Inhibition of 26S proteasome beta 1 in human HEK293 cell lysate assessed as residual activity at […] after 1 hr; assay type: cell-free
[11] = target: Proteasome subunit beta type-5 (Homo sapiens) (UniProt P28074); assay: Inhibition of 26S proteasome beta 5 in human HEK293 cell lysate assessed as residual activity at 0.5 uM after 1 hr
[12] = target: Proteasome Macropain subunit (Homo sapiens) (UniProt P49721); assay: Inhibition of 26S proteasome beta 2 in human HEK293 cell lysate assessed as residual activity at 13.5 uM after 1 hr; assay type: cell-free
[13] = target: Proteasome Macropain subunit (Homo sapiens) (UniProt P49721); assay: Inhibition of 26S proteasome beta 2 in human HEK293 cell lysate assessed as residual activity at 0.002 uM after 1 hr; assay type: cell-free
[14] = target: Proteasome Macropain subunit (Homo sapiens) (UniProt P49721); assay: (§2) Inhibition of 26S proteasome beta 2 in human HEK293 cell lysate assessed as residual activity at […] after 1 hr; assay type: cell-free
[15] = target: T1, Proteasome component C5 (Homo sapiens); assay: Inhibition of 26S proteasome beta 1 in human HEK293 cell lysate assessed as residual activity at 0.001 uM after 1 hr; assay type: cell-free
[16] = target: Proteasome Macropain subunit (Homo sapiens) (UniProt P49721); assay: as §2; assay type: cell-free; remark: listed apart in the source
[17] = target: T2, Proteasome Macropain subunit MB1 (Homo sapiens) (UniProt P28074); assay: Displacement of fluorescent labeled MV151 from 26S proteasome beta 5 in human HEK293 cell lysate assessed as disappearance of band at 0.1 to 1 uM after 1 hr by SDS-PAGE; assay type: cell-free
T2 sequence (whole entry): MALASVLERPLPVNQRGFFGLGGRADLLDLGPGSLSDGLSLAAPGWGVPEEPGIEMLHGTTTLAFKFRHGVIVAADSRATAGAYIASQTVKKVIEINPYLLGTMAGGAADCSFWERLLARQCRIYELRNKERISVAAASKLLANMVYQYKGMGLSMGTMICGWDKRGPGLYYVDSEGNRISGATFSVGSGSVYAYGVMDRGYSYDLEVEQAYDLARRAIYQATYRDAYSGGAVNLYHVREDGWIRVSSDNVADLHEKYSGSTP

[18] = target: Proteasome Macropain subunit (Homo sapiens) (UniProt P49721); assay: Inhibition of 26S proteasome beta 2 in human HEK293 cell lysate assessed as residual activity at 0.006 uM after 1 hr; assay type: cell-free
[19] = target: T1, Proteasome component C5 (Homo sapiens); assay: as §1; assay type: cell-free; remark: listed apart in the source
[20] = target: Proteasome Macropain subunit (Homo sapiens) (UniProt P49721); assay: Inhibition of 26S proteasome beta 2 in human HEK293 cell lysate assessed as residual activity at 0.019 uM after 1 hr; assay type: cell-free
[21] = target: T1, Proteasome component C5 (Homo sapiens); assay: Inhibition of 26S proteasome beta 1 in human HEK293 cell lysate assessed as residual activity at 0.006 uM after 1 hr; assay type: cell-free
[22] = target: Proteasome subunit beta type-5 (Homo sapiens) (UniProt P28074); assay: Inhibition of 26S proteasome beta 5 in human HEK293 cell lysate assessed as residual activity at […] after 1 hr
[23] = target: Proteasome subunit beta type-5 (Homo sapiens) (UniProt P28074); assay: Inhibition of 26S proteasome beta 5 in human HEK293 cell lysate assessed as residual activity at 0.006 uM after 1 hr
[24] = target: T1, Proteasome component C5 (Homo sapiens); assay: Inhibition of 26S proteasome beta 1 in human HEK293 cell lysate assessed as residual activity at 0.002 uM after 1 hr; assay type: cell-free
[25] = target: Proteasome subunit beta type-5 (Homo sapiens) (UniProt P28074); assay: Inhibition of 26S proteasome beta 5 in human HEK293 cell lysate assessed as residual activity at 1.5 uM after 1 hr
[26] = target: Proteasome subunit beta type-5 (Homo sapiens) (UniProt P28074); assay: Inhibition of 26S proteasome beta 5 in human HEK293 cell lysate assessed as residual activity at 0.167 uM after 1 hr
[27] = target: Proteasome subunit beta type-5 (Homo sapiens) (UniProt P28074); assay: Inhibition of 26S proteasome beta 5 in human HEK293 cell lysate assessed as residual activity at 0.019 uM after 1 hr
[28] = target: Proteasome Macropain subunit (Homo sapiens) (UniProt P49721); assay: Inhibition of 26S proteasome beta 2 in human HEK293 cell lysate assessed as residual activity at 1.5 uM after 1 hr; assay type: cell-free
[29] = target: Proteasome subunit beta type-5 (Homo sapiens) (UniProt P28074); assay: Inhibition of 26S proteasome beta 5 in human HEK293 cell lysate assessed as residual activity at […] after 1 hr; remark: listed apart in the source
[30] = target: T1, Proteasome component C5 (Homo sapiens); assay: Inhibition of 26S proteasome beta 1 in human HEK293 cell lysate assessed as residual activity at 13.5 uM after 1 hr; assay type: cell-free
[31] = target: Proteasome Macropain subunit (Homo sapiens) (UniProt P49721); assay: Inhibition of 26S proteasome beta 2 in human HEK293 cell lysate assessed as residual activity at 0.5 uM after 1 hr; assay type: cell-free
[32] = target: Proteasome subunit beta type-5 (Homo sapiens) (UniProt P28074); assay: Inhibition of 26S proteasome beta 5 in human HEK293 cell lysate assessed as residual activity at 13.5 uM after 1 hr

Chain of Proteasome Macropain subunit (Homo sapiens) (P49721 whole entry): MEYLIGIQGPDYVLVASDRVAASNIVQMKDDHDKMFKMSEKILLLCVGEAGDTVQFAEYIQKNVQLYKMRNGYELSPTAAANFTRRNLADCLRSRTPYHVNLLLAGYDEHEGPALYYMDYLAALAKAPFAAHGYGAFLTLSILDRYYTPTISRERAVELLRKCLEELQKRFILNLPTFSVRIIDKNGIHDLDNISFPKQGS

Activity [1]: Active | Activity [2]: 3.1% | Activity [3]: 45.2% | Activity [4]: 94.3% | Activity [5]: 35.5% | Activity [6]: 41.3% | Activity [7]: 100% | Activity [8]: 17% | Activity [9]: 92.3% | Activity [10]: 79.1% | Activity [11]: 7.7% | Activity [12]: 38.5% | Activity [13]: 93.1% | Activity [14]: 63.7% | Activity [15]: 99.9% | Activity [16]: 122% | Activity [17]: Active | Activity [18]: 109% | Activity [19]: 1.1% | Activity [20]: 118% | Activity [21]: 93.2% | Activity [22]: 2.7% | Activity [23]: 23.3% | Activity [24]: 102% | Activity [25]: 5.4% | Activity [26]: 8.8% | Activity [27]: 21.2% | Activity [28]: 78.5% | Activity [29]: 14.3% | Activity [30]: 0.5% | Activity [31]: 103% | Activity [32]: 0.7%
Compound: CC(C)C[C@H](NC(=O)[C@H](Cc1cc(C(F)(F)F)cc(C(F)(F)F)c1)NC(=O)c1cnccn1)B1OC2C[C@@H]3C[C@@H](C3(C)C)[C@]2(C)O1 (some centres not stated)
